Measurements published in PubChem BioAssay AID1963866 (Molecular Pharmacology Branch, DTP, NCI, 2024).

Tested on: PDC KRAS tumor spheroids with HUVEC/MSC, viability
Assay: Anticancer human tumor 349418-098-R-PDC patient-derived lung adenocarcinoma cell line growth inhibition [KRAS2]
Conditions: for viability, T/C: stronger effect = lower value
Summary of the method: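 Combination screen of spheroid viability in tumor-cell co-cultures with endothelial (HUVEC) and mesenchymal stem cell stroma. Each agent was tested in half-log dilutions, topping at clinical Cmax or at 10 microM without a known Cmax.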
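Note: spheroids exposed to compounds for seven days before readout.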

CCNC(=O)CC1N=C(c2ccc(Cl)cc2)c2cc(OC)ccc2-n2c(C)nnc21 (centres undefined) + C=CC(=O)N1CCN(c2nc(OCC3CCCN3C)nc3c2CCN(c2cccc4cccc(C)c24)C3)CC1CC#N
IC50 (curve of first compound, second compound 0.0316 µM): 122 nM | IC50 (curve of first compound, second compound 0.1 µM): 95.7 nM | IC50 (curve of first compound, second compound 0.316 µM): 186 nM | IC50 (curve of first compound, second compound 1 µM): 47.7 nM | IC50 (curve of first compound, second compound 3.16 µM): < 31.6 nM | viability, T/C (second compound 0.0316 µM, first compound 0.0316 µM): 102% | viability, T/C (second compound 0.0316 µM, first compound 0.1 µM): 50.9% | viability, T/C (second compound 0.0316 µM, first compound 0.316 µM): 34.2% | viability, T/C (second compound 0.0316 µM, first compound 1 µM): 8.72% | viability, T/C (second compound 0.0316 µM, first compound 3.16 µM): 1.74% | viability, T/C (second compound 0.0316 µM, first compound 10 µM): 0.85% | viability, T/C (second compound 0.1 µM, first compound 0.0316 µM): 93.1% | viability, T/C (second compound 0.1 µM, first compound 0.1 µM): 48.1% | viability, T/C (second compound 0.1 µM, first compound 0.316 µM): 21.8% | viability, T/C (second compound 0.1 µM, first compound 1 µM): 9.94% | viability, T/C (second compound 0.1 µM, first compound 3.16 µM): 1.6% | viability, T/C (second compound 0.1 µM, first compound 10 µM): 0.66% | viability, T/C (second compound 0.316 µM, first compound 0.0316 µM): 101% | viability, T/C (second compound 0.316 µM, first compound 0.1 µM): 70.5% | viability, T/C (second compound 0.316 µM, first compound 0.316 µM): 30.6% | viability, T/C (second compound 0.316 µM, first compound 1 µM): 16.6% | viability, T/C (second compound 0.316 µM, first compound 3.16 µM): 4.31% | viability, T/C (second compound 0.316 µM, first compound 10 µM): 1.58% | viability, T/C (second compound 1 µM, first compound 0.0316 µM): 62.9% | viability, T/C (second compound 1 µM, first compound 0.1 µM): 26.6% | viability, T/C (second compound 1 µM, first compound 0.316 µM): 10.7% | viability, T/C (second compound 1 µM, first compound 1 µM): 4.52% | viability, T/C (second compound 1 µM, first compound 3.16 µM): 0.59% | viability, T/C (second compound 1 µM, first compound 10 µM): 2.47% | viability, T/C (second compound 3.16 µM, first compound 0.0316 µM): 0.12% | viability, T/C (second compound 3.16 µM, first compound 0.1 µM): 0.1% | viability, T/C (second compound 3.16 µM, first compound 0.316 µM): 0.09% | viability, T/C (second compound 3.16 µM, first compound 1 µM): 0.08% | viability, T/C (second compound 3.16 µM, first compound 3.16 µM): 0.08% | viability, T/C (second compound 3.16 µM, first compound 10 µM): 0.13%

Cn1ncnc1[C@H]1c2n[nH]c(=O)c3cc(F)cc(c23)N[C@@H]1c1ccc(F)cc1
viability, T/C (compound 0.000316 µM): 104% [middle of 5 runs] | viability, T/C (compound 0.001 µM): 96.9% [middle of 5 runs] | viability, T/C (compound 0.00316 µM): 96.4% [middle of 5 runs] | viability, T/C (compound 0.01 µM): 94.2% [middle of 5 runs] | viability, T/C (compound 0.0316 µM): 86.2% [middle of 5 runs] | viability, T/C (compound 0.1 µM): 78.7% [middle of 5 runs] | IC50 (curve of compound): > 100 nM

CC(=O)Nc1cccc(-n2c(=O)n(C3CC3)c(=O)c3c(Nc4ccc(I)cc4F)n(C)c(=O)c(C)c32)c1
viability, T/C (compound 0.0001 µM): 31.7% [middle of 5 runs] | viability, T/C (compound 0.000316 µM): 22.2% [middle of 5 runs] | viability, T/C (compound 0.001 µM): 18.4% [middle of 5 runs] | viability, T/C (compound 0.00316 µM): 13.8% [middle of 5 runs] | viability, T/C (compound 0.01 µM): 9.89% [middle of 5 runs] | viability, T/C (compound 0.0316 µM): 7.25% [middle of 5 runs] | IC50 (curve of compound): < 0.1 nM
